The subject of data set [1] is Cryptosporidium parvum (CP). Put plainly: Cell culture model of Cryptosporidium parvum infection in HCT-8 cells, real-time qRT-PCR. Format: cell-based. The settings on record: Cryptosporidium parvum; for MIC50: 44 h, CP in HCT-8 cells, 44 h infection, 50% reduction of parasite growth vs control, NA: not active, read-out: MIC50; for inhibition at 0.25 µM: HCT-8, @0.25 uM. On the procedure:
Fresh oocysts of CP (Iowa strain) were purchased from Bunch Grass Farm (Deary, Id.). Oocysts were further purified by a Percoll-based gradient centrifugation method and surface sterilized with 10% bleach for 7 min on ice, followed by washes with phosphate-buffered saline (PBS). An ileocecal colorectal adenocarcinoma cell line (HCT-8, ATCC #CCL-244) was used to host the growth of CP in vitro. One day before the inoculation, HCT-8 cells were seeded in 96-well plates (2.5×10^4/well) containing RPMI 1640 medium supplied with 10% fetal bovine serum (200 μL medium/well in all experiments) and allowed to grow overnight at 37° C. under 5% CO2 atmosphere until they reached ˜90% confluence. For drug testing, host cells were infected with 1.5×10^4 oocysts per well (ratio ˜1:3). After inoculation, parasite oocysts were allowed to undergo excystation and invasion into host cells for 3 h at 37° C. Free parasites and oocyst walls in the medium were removed from the plates by an exchange of the culture medium. Drugs at specified concentrations were added into the culture at this time point (immediately after the medium exchange). Parasite-infected cells were then incubated at 37° C. for additional 41 h (total 44 h infection time). At least two independent experiments were conducted for every experimental condition, each including two replicates drugs and eight replicates for negative controls.
Plates containing HCT-8 cells infected with CP for 44 h were first centrifuged for 10 min at 1000×g to ensure that free merozoites in the medium were firmly settled on the bottom of the wells. Medium was removed, followed by two gentle washes with PBS. For extracting total RNA, 200 μL of ice-cold Bio-Rad iScript qRT-PCR sample preparation reagent (lysis buffer) (Bio-Rad Laboratories, Hercules, Calif.) was added into each well. Plates were sealed with heat sealing films and subjected to vortex for 20 min. Plates were then incubated at 75° C. for 15 min, followed by centrifugation (5 min, 2000×g) to settle down cell debris. Supernatants were used immediately in subsequent qRT-PCR reactions or the plates were stored at −80° C. until use.
The levels of 18S rRNA transcripts from CP and host cells (referred to as Cp18S and Hs18S) were detected by real-time qRT-PCR method using qScrip™ one-step SYBR green qRT-PCR kit (Quanta Biosciences, Gaithersburg, Md.). Cell lysates prepared as described above were diluted by 100 and 2000 folds for detecting Cp18S and Hs18S transcripts, respectively. Reactions were performed in hard-shell 384-well skirted PCR plates (Bio-Rad Laboratories, Hercules, Calif.) (10 μL/well) containing 3 μL diluted cell lysate, 5 μL one-step SYBR green master mix, 0.2 μl RT master mix and the following primers: Cp18S-1011F and Cp18S-1185R primer pair for Cp18S rRNA, and Hs18S-1F and Hs18S-1R primer pair for Hs18S rRNA. Hs18S levels were used as controls and for normalization.
Real-time qRT-PCR reactions were performed by a Bio-Rad CFX384 Touch Real-Time PCR Detection System. The reactions started with synthesizing cDNA at 50° C. for 20 min, followed by 5 min at 95° C. to denature RNA-cDNA hybrids and deactivate reverse transcriptase, and 40 two-temperature thermal cycles of PCR amplification at 95° C., 10 sec and 58° C., 30 sec. At the end of PCR amplification, melting curve analysis was performed between 65° C. to 95° C. At least 2 technical replicates were included in qRT-PCR reactions for each sample.
The % inhibition (% inh @ (μM)) was calculated using a standard curve.
A general note: Quantitative PCR measures a nucleic acid by following its amplification.

The test system of data set [2] is human fibroblast. Put plainly: in vitro.
The test system of data set [3] is S. cerevisiae. Nature of the data set: in vitro. Conditions: Saccharomyces cerevisiae.

Converted amounts (≈) assume the structure as drawn. Where two headings read alike, the source gives them in different places.

Regarding `CC(C)NC(=O)Nc1ccc(Oc2nc3ccc(Cl)cc3s2)cc1` [NZ-331, 1-{4-[(6-chloro-1,3-benzothiazol-2-yl)oxy]phenyl}-3-(propan-2-yl)urea], the inhibition at 0.05 µM in data set [1] (HCT-8, read-out: % inh @ (μM)) is 36%. The “concentrations at which not toxic, human fibroblast cytotoxicity testing” value in data set [2] is not below 100 µM. Also, the “concentrations at which not toxic, S. cerevisiae cytotoxicity testing” value in data set [3] was not below 100 µM.
Broadly, the MIC50 is the lowest concentration that inhibits either 50% of growth or 50% of the strains tested, depending on the study. Consider `CNC(=O)C(C)c1ccc(Oc2nc3ccc(F)cc3s2)cc1` (stereo not shown) [NZ-386, 2-{4-[(6-fluoro-1,3-benzothiazol-2-yl)oxy]phenyl}-N-methylpropanamide], for which the MIC50 in data set [1] was in the range of 0.05 to 0.3 µM (≈ 0.0165 to 0.0991 µg/mL). In data set [2] (human), the “concentrations at which not toxic, human fibroblast cytotoxicity testing” value was not below 100 µM. Also, in data set [3], the “concentrations at which not toxic, S. cerevisiae cytotoxicity testing” value is not below 100 µM.
As for `CC(C(=O)N1CCNCC1)c1ccc(Oc2nc3cc(F)c(F)cc3s2)cc1` (stereo not shown) [NZ-489, 2-{4-[(5,6-difluoro-1,3-benzothiazol-2-yl)oxy]phenyl}-1-(piperazin-1-yl)propan-1-one], in data set [1], the MIC50 is less than 0.25 µM and the inhibition at 0.25 µM came out at 68%. In data set [2] (human), the “concentrations at which not toxic, human fibroblast cytotoxicity testing” value is not below 100 µM. Also, the “concentrations at which not toxic, S. cerevisiae cytotoxicity testing” value in data set [3] is not below 100 µM.
On to `CN1CCN(C(=O)Cc2ccc(Oc3nc4ccc(F)cc4s3)cc2)CC1` [NZ-476, 2-{4-[(6-fluoro-1,3-benzothiazol-2-yl)oxy]phenyl}-1-(4-methylpiperazin-1-yl)ethan-1-one], for which the MIC50 in data set [1] was in the range of 0.5 to 1 µM (≈ 0.193 to 0.385 µg/mL). In addition, in data set [2] (human), the “concentrations at which not toxic, human fibroblast cytotoxicity testing” value is not below 100 µM. Also, the “concentrations at which not toxic, S. cerevisiae cytotoxicity testing” value in data set [3] was not below 100 µM.
As to `O=C(Cc1ccc(Oc2nc3ccc(F)cc3s2)cc1)N1CCNCC1` [NZ-472, 2-{4-[(6-fluoro-1,3-benzothiazol-2-yl)oxy]phenyl}-1-(piperazin-1-yl)ethan-1-one], the MIC50 in data set [1] was approximately 1 µM (≈ 0.371 µg/mL). Also, in data set [2] (human), the “concentrations at which not toxic, human fibroblast cytotoxicity testing” value was not below 100 µM. Moreover, the “concentrations at which not toxic, S. cerevisiae cytotoxicity testing” value in data set [3] was not below 100 µM.
Regarding `CNC(=O)Cc1c(F)cc(Oc2nc3ccc(F)cc3s2)cc1F` [NZ-433, 2-{2,6-difluoro-4-[(6-fluoro-1,3-benzothiazol-2-yl)oxy]phenyl}-N-methylacetamide], in data set [1], the MIC50 was approximately 2 µM (≈ 0.705 µg/mL). The “concentrations at which not toxic, human fibroblast cytotoxicity testing” value in data set [2] (human) was not below 100 µM. The “concentrations at which not toxic, S. cerevisiae cytotoxicity testing” value in data set [3] was not below 100 µM.
`CNC(=O)Cc1c(F)cc(Oc2cnc3cc(Cl)ccc3n2)cc1F` [NZ-460, 2-{4-[(6-chloroquinoxalin-2-yl)oxy]-2,6-difluorophenyl}-N-methylacetamide] gave an inhibition at 5 µM in data set [1] (HCT-8, @5 uM) of 19%. In data set [2] (human), the “concentrations at which not toxic, human fibroblast cytotoxicity testing” value was not below 100 µM. In data set [3], the “concentrations at which not toxic, S. cerevisiae cytotoxicity testing” value was not below 100 µM.
Take `CC(C(=O)N1CCN(C)CC1)c1ccc(Oc2nc3cc(F)c(F)cc3s2)cc1` (stereo not shown) [NZ-465, 2-{4-[(5,6-difluoro-1,3-benzothiazol-2-yl)oxy]phenyl}-1-(4-methylpiperazin-1-yl)propan-1-one]: in data set [1], the MIC50 was less than 0.25 µM and the inhibition at 0.25 µM came out at 68%. For the same molecule, the “concentrations at which not toxic, human fibroblast cytotoxicity testing” value in data set [2] (human) is not below 100 µM. The “concentrations at which not toxic, S. cerevisiae cytotoxicity testing” value in data set [3] was not below 100 µM.
Turning to `CC(C(=O)NC(CO)CO)c1ccc(Oc2nc3ccc(Cl)cc3s2)cc1` (stereo not shown) [NZ-371, 2-{4-[(6-chloro-1,3-benzothiazol-2-yl)oxy]phenyl}-N-(1,3-dihydroxypropan-2-yl)propanamide], in data set [1], the MIC50 was 0.15 to 0.23 µM (≈ 0.061 to 0.0936 µg/mL). Further, in data set [2] (human), the “concentrations at which not toxic, human fibroblast cytotoxicity testing” value is not below 100 µM. The “concentrations at which not toxic, S. cerevisiae cytotoxicity testing” value in data set [3] is not below 100 µM.
As to `CNC(=O)Cc1ccc(Oc2nc3ccc(F)cc3s2)cc1O` [NZ-395, 2-{4-[(6-fluoro-1,3-benzothiazol-2-yl)oxy]-2-hydroxyphenyl}-N-methylacetamide], in data set [1], the MIC50 is approximately 5 µM (≈ 1.66 µg/mL). Besides, the “concentrations at which not toxic, human fibroblast cytotoxicity testing” value in data set [2] (human) is not below 100 µM. In data set [3], the “concentrations at which not toxic, S. cerevisiae cytotoxicity testing” value is not below 100 µM.
`CC(C(=O)N1CCNCC1)c1ccc(Oc2nc3ccc(F)cc3s2)cc1` (stereo not shown) [NZ-477, 2-{4-[(6-fluoro-1,3-benzothiazol-2-yl)oxy]phenyl}-1-(piperazin-1-yl)propan-1-one]: the MIC50 in data set [1] fell in the range of 0.05 to 0.17 µM (≈ 0.0193 to 0.0655 µg/mL). In addition, in data set [2] (human), the “concentrations at which not toxic, human fibroblast cytotoxicity testing” value is not below 100 µM. Besides, the “concentrations at which not toxic, S. cerevisiae cytotoxicity testing” value in data set [3] was not below 100 µM.
In the case of `NC(=O)Cc1ccc(Oc2nc3ccc(F)cc3s2)cc1F` [NZ-484, 2-{2-fluoro-4-[(6-fluoro-1,3-benzothiazol-2-yl)oxy]phenyl}acetamide], the MIC50 in data set [1] is approximately 1 µM (≈ 0.32 µg/mL). For the same molecule, in data set [2] (human), the “concentrations at which not toxic, human fibroblast cytotoxicity testing” value was not below 100 µM. Besides, the “concentrations at which not toxic, S. cerevisiae cytotoxicity testing” value in data set [3] was not below 100 µM.
With `NC(=O)Cc1ccc(Oc2nc3cc(F)c(F)cc3s2)cc1` [NZ-485, 2-{4-[(5,6-difluoro-1,3-benzothiazol-2-yl)oxy]phenyl}acetamide], the MIC50 in data set [1] was in the range of 1 to 4 µM (≈ 0.32 to 1.28 µg/mL). In data set [2] (human), the “concentrations at which not toxic, human fibroblast cytotoxicity testing” value is not below 100 µM. The “concentrations at which not toxic, S. cerevisiae cytotoxicity testing” value in data set [3] is not below 100 µM.
Regarding `NCCNC(=O)Cc1ccc(Oc2nc3ccc(F)cc3s2)cc1` [NZ-427, N-(2-aminoethyl)-2-{4-[(6-fluoro-1,3-benzothiazol-2-yl)oxy]phenyl}acetamide], in data set [1], the MIC50 was less than 0.25 µM and the inhibition at 0.25 µM stood at 71%. Also, in data set [2] (human), the “concentrations at which not toxic, human fibroblast cytotoxicity testing” value is not below 100 µM. Moreover, the “concentrations at which not toxic, S. cerevisiae cytotoxicity testing” value in data set [3] was not below 100 µM.
Regarding `CONC(=O)COc1ccc(Oc2cnc3cc(Cl)ccc3n2)cc1` [NZ-274, 2-{4-[(6-chloroquinoxalin-2-yl)oxy]phenoxy}-N-methoxyacetamide], in data set [1] (HCT-8, read-out: % inh @ (μM)), the inhibition at 10 µM stood at 1.5%. Besides, in data set [2], the “concentrations at which not toxic, human fibroblast cytotoxicity testing” value is not below 100 µM. In data set [3], the “concentrations at which not toxic, S. cerevisiae cytotoxicity testing” value is not below 100 µM.
Regarding `NC(=O)Cc1ccc(Oc2nc3ccc(Cl)cc3s2)cc1F` [NZ-500, 2-{4-[(6-chloro-1,3-benzothiazol-2-yl)oxy]-2-fluorophenyl}acetamide], the MIC50 in data set [1] was approximately 0.25 µM (≈ 0.0842 µg/mL). In addition, the “concentrations at which not toxic, human fibroblast cytotoxicity testing” value in data set [2] (human) was not below 100 µM. In data set [3], the “concentrations at which not toxic, S. cerevisiae cytotoxicity testing” value was not below 100 µM.
For the molecule `CNC(=O)Cc1ccc(Oc2nc3ccc(Cl)cc3s2)cc1O` [NZ-389, 2-{4-[(6-chloro-1,3-benzothiazol-2-yl)oxy]-2-hydroxyphenyl}-N-methylacetamide], the MIC50 in data set [1] was approximately 1.1 µM (≈ 0.384 µg/mL). Also, the “concentrations at which not toxic, human fibroblast cytotoxicity testing” value in data set [2] (human) was not below 100 µM. The “concentrations at which not toxic, S. cerevisiae cytotoxicity testing” value in data set [3] was not below 100 µM.
For the molecule `O=C(Cc1ccc(Oc2nc3ccc(Cl)cc3s2)cc1)N1CCS(=O)(=O)CC1` [NZ-576, 4-(2-{4-[(6-chloro-1,3-benzothiazol-2-yl)oxy]phenyl}acetyl)-1λ^6,4-thiomorpholine-1,1-dione], the MIC50 in data set [1] was approximately 0.03 µM (≈ 0.0131 µg/mL).
Regarding `CS(=O)(=O)NC(=O)COc1ccc(Oc2cnc3cc(Cl)ccc3n2)cc1` [NZ-259, 2-{4-[(6-chloroquinoxalin-2-yl)oxy]phenoxy}-N-methanesulfonylacetamide], in data set [1], the MIC50 was more than 10 µM. In data set [1] (HCT-8, @10 uM, read-out: % inh @), the inhibition at 10 µM worked out at 33%.
`O=C(Nc1ccc(Oc2nc3ccc(Cl)cc3s2)cc1)NC1COC1` [NZ-574, 1-{4-[(6-chloro-1,3-benzothiazol-2-yl)oxy]phenyl}-3-(oxetan-3-yl)urea]: the MIC50 in data set [1] was approximately 1 µM (≈ 0.376 µg/mL).
